The record followed here is patent publication US20240050428A1 (Cullgen (Shanghai), Inc., priority 2020, published 2024).

Read-outs that look alike come from different tables or passages of the source.

Assay [1] deals with MOLM-13 cells. As to the kind of experiment: Cell viability assay (CellTiter-Glo) in MOLM-13 cells, alone or with gilteritinib. Conditions: Homo sapiens, MOLM-13, 72 h, MOLM-13 cells, three days, CellTiter-Glo. In kind it is cell-based. (Cellular ATP, detected with luciferase, serves as a proxy for viable cell number.)
Assay [2] concerns MV4;11 cells. As to the kind of experiment: Cell viability assay (CellTiter-Glo) in MV4;11 cells, alone or with gilteritinib. In kind it is cell-based. To be noted: Homo sapiens, MV4-11, 72 h, MV4;11 cells, three days, CellTiter-Glo, read-out: MV4.
[3] abbreviates: compound alone (without gilteritinib), read-out: MOLM-13 IC50.
Where [4] appears, read: with gilteritinib 20 nM, read-out: MOLM-13 IC50 gilteritinib.
[5] abbreviates: compound alone (without gilteritinib), 11 IC50.
Where [6] appears, read: with gilteritinib 10 nM, 11 IC50 gilteritinib.
The mark [7] stands for this setting: compound with gilteritinib 20 nM, read-out: MOLM-13 IC50 gilteritinib.
The mark [8] stands for this setting: compound with gilteritinib 10 nM, 11 IC50 gilteritinib.

`O=C1CCC(N2C(=O)c3ccc(NCCCCCC(=O)N4CC(Oc5ccccc5)C4)cc3C2=O)C(=O)N1` (centres unmarked) [GS-334, 2-(2,6-Dioxopiperidin-3-yl)-5-((6-oxo-6-(3-phenoxyazetidin-1-yl)hexyl)amino)isoindoline-1,3-dione]: the IC50 in assay [1] (setting [3]) is greater than 1000 nM; in assay [1] (setting [4]), 100 to 1000 nM; in assay [2] (setting [5]), greater than 1000 nM; in assay [2] (setting [6]), greater than 1000 nM.
`C[C@@H]1CC(n2cc(-c3cnc4ccccc4n3)cn2)C[C@H](C)N1C(=O)CCCCNc1ccc2c(c1)C(=O)N(C1CCC(=O)NC1=O)C2=O` (stereo partly drawn) [GS-143, 5-((5-((2R,6S)-2,6-dimethyl-4-(4-(quinoxalin-2-yl)-1H-pyrazol-1-yl)piperidin-1-yl)-5-oxopentyl)amino)-2-(2,6-dioxopiperidin-3-yl)isoindoline-1,3-dione]: the IC50 in assay [1] (setting [3]), in assay [1] (setting [4]), in assay [2] (setting [5]) and in assay [2] (setting [6]) was greater than 1000 nM in each case.
In the case of `O=C1CCC(N2C(=O)c3ccc(NCCCCCC(=O)N4CCC(n5cc(-c6cnc7cccc(C8CCNCC8)c7n6)cn5)CC4)cc3C2=O)C(=O)N1` (centres unmarked) [GS-044, 2-(2,6-dioxopiperidin-3-yl)-5-((6-oxo-6-(4-(4-(8-(piperidin-4-yl)quinoxalin-2-yl)-1H-pyrazol-1-yl)piperidin-1-yl)hexyl)amino)isoindoline-1,3-dione], the IC50 is 10 to 100 nM in assay [1] (setting [3]), less than 10 nM in assay [1] (setting [4]), 10 to 100 nM in assay [2] (setting [5]) and less than 10 nM in assay [2] (setting [6]).
For `O=C1CCC(N2Cc3c(Nc4ccnc(N5CCC(n6cc(-c7cnc8ccccc8n7)cn6)CC5)n4)cccc3C2=O)C(=O)N1` (centres unmarked) [GS-081, 3-(1-Oxo-4-((2-(4-(4-(quinoxalin-2-yl)-1H-pyrazol-1-yl)piperidin-1-yl)pyrimidin-4-yl)amino)isoindolin-2-yl)piperidine-2,6-dione], the IC50 in assay [1] (setting [3]), in assay [1] (setting [4]), in assay [2] (setting [5]) and in assay [2] (setting [6]) was greater than 1000 nM in each case.
Consider `Cc1ccccc1-c1cnn(CCCCCCNc2ccc3c(c2)C(=O)N(C2CCC(=O)NC2=O)C3=O)c1` (centres unmarked) [GS-516, 2-(2,6-Dioxopiperidin-3-yl)-5-((6-(4-(o-tolyl)-1H-pyrazol-1-yl)hexyl)amino)isoindoline-1,3-dione], for which the IC50 in assay [1] (setting [3]) was greater than 1000 nM; in assay [1] (setting [7]) it was 10 to 100 nM; in assay [2] (setting [5]) it was 100 to 1000 nM; in assay [2] (setting [8]) it was 10 to 100 nM.
Regarding `O=C1CCC(N2C(=O)c3ccc(NC[C@H]4C[C@H](n5cc(C6CCCCC6O)c(C6CC6)n5)C4)cc3C2=O)C(=O)N1` (stereo partly drawn) [GS-634, 5-(((trans-3-(3-Cyclopropyl-4-(2-hydroxycyclohexyl)-1H-pyrazol-1-yl)cyclobutyl)methyl)amino)-2-(2,6-dioxopiperidin-3-yl)isoindoline-1,3-dione], the IC50 in assay [1] (setting [3]) is 100 to 1000 nM; in assay [1] (setting [7]) it was 10 to 100 nM; in assay [2] (setting [5]), 10 to 100 nM; in assay [2] (setting [8]) it was less than 10 nM.
As for `Cc1cccc(-c2cn([C@H]3C[C@H](CNc4ccc5c(c4)C(=O)N(C4CCC(=O)NC4=O)C5=O)C3)nc2C(=O)N(C)C)n1` (stereo partly drawn) [GS-636, 1-(trans-3-(((2-(2,6-dioxopiperidin-3-yl)-1,3-dioxoisoindolin-5-yl)amino)methyl)cyclobutyl)-N,N-dimethyl-4-(6-methylpyridin-2-yl)-1H-pyrazole-3-carboxamide], the IC50 in assay [1] (setting [3]), in assay [1] (setting [7]), in assay [2] (setting [5]) and in assay [2] (setting [8]) was greater than 1000 nM each time.
`O=C1CCC(N2C(=O)c3ccc(NCCC[C@H]4C[C@H](n5cc(-c6cccc(=O)[nH]6)cn5)C4)cc3C2=O)C(=O)N1` (stereo partly drawn) [GS-249, 2-(2,6-Dioxopiperidin-3-yl)-5-((3-(trans-3-(4-(6-oxo-1,6-dihydropyridin-2-yl)-1H-pyrazol-1-yl)cyclobutyl)propyl)amino)isoindoline-1,3-dione]: the IC50 in assay [1] (setting [3]) was greater than 1000 nM; in assay [1] (setting [4]), 100 to 1000 nM; in assay [2] (setting [5]) it was 100 to 1000 nM; in assay [2] (setting [6]), greater than 1000 nM.
In the case of `O=C1CCC(N2C(=O)c3ccc(NC[C@H]4C[C@H](n5cc(-c6cccc(N7CCOCC7)n6)cn5)C4)cc3C2=O)C(=O)N1` (stereo partly drawn) [GS-216, 2-(2,6-Dioxopiperidin-3-yl)-5-(((trans-3-(4-(6-morpholinopyridin-2-yl)-1H-pyrazol-1-yl)cyclobutyl)methyl)amino)isoindoline-1,3-dione], the IC50 in assay [1] (setting [3]) was greater than 1000 nM; in assay [1] (setting [4]), greater than 1000 nM; in assay [2] (setting [5]) it was 100 to 1000 nM; in assay [2] (setting [6]), greater than 1000 nM.
Consider `O=C1CCC(N2C(=O)c3ccc(NCCCCCCn4cc(-c5cnc6ccc(C(F)(F)F)cc6n5)cn4)cc3C2=O)C(=O)N1` (centres unmarked) [GS-559], for which the IC50 in assay [1] (setting [3]) is 10 to 100 nM; in assay [1] (setting [7]) it was less than 10 nM; in assay [2] (setting [5]) it was 10 to 100 nM; in assay [2] (setting [8]) it was 10 to 100 nM.
As to `O=C1CCC(N2C(=O)c3ccc(NCCC[C@H]4C[C@H](n5cc(-c6cnc7ccc(NC8CCNCC8)cc7n6)cn5)C4)cc3C2=O)C(=O)N1` (stereo partly drawn) [GS-196, 2-(2,6-Dioxopiperidin-3-yl)-5-((3-(trans-3-(4-(7-(piperidin-4-ylamino)quinoxalin-2-yl)-1H-pyrazol-1-yl)cyclobutyl)propyl)amino)isoindoline-1,3-dione], the IC50 was 10 to 100 nM in assay [1] (setting [3]), less than 10 nM in assay [1] (setting [4]), 10 to 100 nM in assay [2] (setting [5]) and less than 10 nM in assay [2] (setting [6]).
As for `O=C1CCC(N2C(=O)c3ccc(NCCC[C@H]4C[C@H](n5cc(-c6cnc7c(N8CCNCC8)cccc7n6)cn5)C4)cc3C2=O)C(=O)N1` (stereo partly drawn) [GS-405, 2-(2,6-Dioxopiperidin-3-yl)-5-((3-(trans-3-(4-(5-(piperazin-1-yl)quinoxalin-2-yl)-1H-pyrazol-1-yl)cyclobutyl)propyl)amino)isoindoline-1,3-dione], the IC50 in assay [1] (setting [3]) was 100 to 1000 nM; in assay [1] (setting [4]), less than 10 nM; in assay [2] (setting [5]), 10 to 100 nM; in assay [2] (setting [6]), 10 to 100 nM.
Consider `O=C1CCC(N2Cc3ccc(NCCCCCn4cc(-c5cnc6ccccc6n5)cn4)cc3C2=O)C(=O)N1` (centres unmarked) [GS-519, 3-(1-Oxo-6-((5-(4-(quinoxalin-2-yl)-1H-pyrazol-1-yl)pentyl)amino)isoindolin-2-yl)piperidine-2,6-dione], for which the IC50 in assay [1] (setting [3]), in assay [1] (setting [7]), in assay [2] (setting [5]) and in assay [2] (setting [8]) was greater than 1000 nM throughout.
On to `O=C1CCC(N2C(=O)c3ccc(NCCC[C@H]4C[C@H](n5cc(-c6cccc(C7CCOCC7)n6)cn5)C4)cc3C2=O)C(=O)N1` (stereo partly drawn) [GS-236, 2-(2,6-Dioxopiperidin-3-yl)-5-((3-(trans-3-(4-(6-(tetrahydro-2H-pyran-4-yl)pyridin-2-yl)-1H-pyrazol-1-yl)cyclobutyl)propyl)amino)isoindoline-1,3-dione], for which the IC50 in assay [1] (setting [3]) fell in the range of 100 to 1000 nM; in assay [1] (setting [4]), 10 to 100 nM; in assay [2] (setting [5]), 100 to 1000 nM; in assay [2] (setting [6]), 10 to 100 nM.
On to `O=C1CCC(N2Cc3c(Nc4ccnc(Nc5cccc(N6CCN(c7ccccn7)CC6)c5)n4)cccc3C2=O)C(=O)N1` (centres unmarked) [GS-076, 3-(1-Oxo-4-((2-((3-(4-(pyridin-2-yl)piperazin-1-yl)phenyl)amino)pyrimidin-4-yl)amino)isoindolin-2-yl)piperidine-2,6-dione], for which the IC50 in assay [1] (setting [3]) was 10 to 100 nM; in assay [1] (setting [4]), less than 10 nM; in assay [2] (setting [5]) it was 10 to 100 nM; in assay [2] (setting [6]), less than 10 nM.
As to `Cc1nn(CCCCCCNc2ccc3c(c2)C(=O)N(C2CCC(=O)NC2=O)C3=O)cc1-c1cnc2ccccc2n1` (centres unmarked) [GS-534, 2-(2,6-Dioxopiperidin-3-yl)-5-((6-(3-methyl-4-(quinoxalin-2-yl)-1H-pyrazol-1-yl)hexyl)amino)isoindoline-1,3-dione], the IC50 in assay [1] (setting [3]) was 10 to 100 nM; in assay [1] (setting [7]), less than 10 nM; in assay [2] (setting [5]) it was 10 to 100 nM; in assay [2] (setting [8]), less than 10 nM.
As for `COc1cccnc1-c1cnn([C@H]2C[C@H](CCCNc3ccc4c(c3)C(=O)N(C3CCC(=O)NC3=O)C4=O)C2)c1` (stereo partly drawn) [GS-494, 2-(2,6-Dioxopiperidin-3-yl)-5-((3-(trans-3-(4-(3-methoxypyridin-2-yl)-1H-pyrazol-1-yl)cyclobutyl)propyl)amino)isoindoline-1,3-dione], the IC50 in assay [1] (setting [3]) is 10 to 100 nM; in assay [1] (setting [7]) it was less than 10 nM; in assay [2] (setting [5]), 10 to 100 nM; in assay [2] (setting [8]), less than 10 nM.
With `O=C1CCC(N2C(=O)c3ccc(NC[C@H]4C[C@H](n5cc(-c6ccccc6Cl)c(C6CC6)n5)C4)cc3C2=O)C(=O)N1` (stereo partly drawn) [GS-458, 5-(((trans-3-(4-(2-chlorophenyl)-3-cyclopropyl-1H-pyrazol-1-yl)cyclobutyl)methyl)amino)-2-(2,6-dioxopiperidin-3-yl)isoindoline-1,3-dione], the IC50 in assay [1] (setting [3]) was 10 to 100 nM; in assay [1] (setting [7]), less than 10 nM; in assay [2] (setting [5]) it was 10 to 100 nM; in assay [2] (setting [8]), less than 10 nM.
Take `Cc1cccc(-c2cn([C@H]3C[C@H](CNc4ccc5c(c4)C(=O)N(C4CCC(=O)NC4=O)C5=O)C3)nc2C(F)F)n1` (stereo partly drawn) [GS-444, 5-(((trans-3-(3-(difluoromethyl)-4-(6-methylpyridin-2-yl)-1H-pyrazol-1-yl)cyclobutyl)methyl)amino)-2-(2,6-dioxopiperidin-3-yl)isoindoline-1,3-dione]: the IC50 was 10 to 100 nM in assay [1] (setting [3]), less than 10 nM in assay [1] (setting [7]), 10 to 100 nM in assay [2] (setting [5]) and less than 10 nM in assay [2] (setting [8]).
Regarding `O=C1CCC(N2C(=O)c3ccc(NCCC[C@H]4C[C@H](n5cc(-c6cnc7ccc(CN8CCNCC8)cc7n6)cn5)C4)cc3C2=O)C(=O)N1` (stereo partly drawn) [GS-209, 2-(2,6-Dioxopiperidin-3-yl)-5-((3-(trans-3-(4-(7-(piperazin-1-ylmethyl)quinoxalin-2-yl)-1H-pyrazol-1-yl)cyclobutyl)propyl)amino)isoindoline-1,3-dione], the IC50 was 100 to 1000 nM in assay [1] (setting [3]), 10 to 100 nM in assay [1] (setting [4]), 100 to 1000 nM in assay [2] (setting [5]) and 10 to 100 nM in assay [2] (setting [6]).
